# Earlier results, collected in patent US20180015164A1, “A Composition Containing Protective Agent for Singlet Oxygen and A Preparation Method therefor” (Nanjing University, priority 2016, published 2018).
# Details: in the named solution (solvent / protective agent)
row,Compound,lifetime of singlet oxygen [μs]
1,FC(Cl)(Cl)Cl [Freon 11],1000±200
2,S=C=S [carbon disulfide],200±60
3,ClC(Cl)Cl [chloroform],60±15
4,[2H]O[2H] [deuteroxide],20
5,CCO [ethyl alcohol],12
6,CCCCCC [hexane],17
7,CO [methyl alcohol],7
8,FC(F)(F)C(F)(F)C(F)(F)C(F)(F)C(F)(F)C(F)(F)F [perfluorohexane],600±200
9,O [water],2
